{
  "source": "patent EP3791884A1",
  "about": "“COMBINATION OF HEPARIN AND MAGNESIUM SALT FOR THE TREATMENT OF VIRAL INFECTIONS” (Bunz, Oskar, priority 2019, dated 2021)",
  "key": {"[1]": {"conditions": "in vivo; cited from earlier work"}, "[2]": {"test_system": "several types of adenovirus", "conditions": "cited from earlier work"}, "[3]": {"test_system": "human adenovirus type 5 (HAdV5)", "conditions": "solely MgCl2, with 25 µmol MgCl2, HAdV5 1000 vpc, CHO-K1 cells"}, "HAdV5 [4]": {"test_system": "HAdV5"}, "HAdV5 [5]": {"test_system": "HAdV5", "conditions": "HeLa cells, HAdV5 1000 vpc, heparin 5 I.U. per well and/or MgCl2 5 µmol per well 4 hrs prior to infection, 26 hrs post infection"}, "H9N2": {"test_system": "H9N2", "conditions": "MDCKII cells, H9N2 MOI 0,1, Heparin 5 I.U. per well and/or MgCl2 5 µmol per well"}, "adenovirus type 5": {"test_system": "adenovirus type 5", "assay": "Zinc test series: antiviral effect, adenovirus type 5", "assay_type": "cell-based", "description": "(§1) The inventors have also used zinc for some test series (not described in the Examples section). […] Furthermore, the antiviral effect of zinc was not apparent for all adenoviruses tested. An antiviral effect of zinc was detectable only for adenovirus type 5."}, "Adenovirus type 10": {"test_system": "Adenovirus type 10", "assay": "Zinc test series: antiviral effect, adenovirus type 10", "assay_type": "cell-based", "description": "as §1"}, "[6]": {"assay": "Zinc test series: cytotoxic effect (not described in the Examples)", "assay_type": "cell-based", "description": "as §1"}},
  "note": "Like-named read-outs stand apart in the source and are kept apart here.",
  "data": [
    {"smiles": "Nc1ccn(C[C@@H](CO)OCP(=O)(O)O)c(=O)n1", "note": "[Cidofovir]", "values": [
      {"measurement": "toxicity", "setting": "[1]", "result": "nephrotoxic"}
    ]},
    {"smiles": "Nc1nc(O)c2ncn(COC(CO)CO)c2n1", "note": "[Ganciclovir]", "values": [
      {"measurement": "efficiency against adenovirus", "setting": "[2]", "result": "not against adenovirus"},
      {"measurement": "half-maximal effective concentration (EC50)", "setting": "[2]; in vitro, relative to plasma", "result": "three times higher than in plasma"}
    ]},
    {"smiles": "[Cl-].[Cl-].[Mg+2]", "note": "[MgCl2, magnesium chloride]", "values": [
      {"measurement": "luciferase values", "setting": "[3]", "result": 40, "unit": "%"},
      {"measurement": "luciferase expression levels", "setting": "HAdV5 [4]; only MgCl2 and virus, compared to untreated cells solely infected with virus", "result": 7, "unit": "%"},
      {"measurement": "luciferase expression levels", "setting": "HAdV5 [4]; only applying virus and MgCl2", "result": "about 32%"},
      {"measurement": "luciferase expression levels", "setting": "HAdV10; only MgCl2 and virus", "result": 12, "unit": "%"},
      {"measurement": "luciferase expression levels", "setting": "HAdV10; only applying virus and MgCl2", "result": 10, "unit": "%"},
      {"measurement": "median fluorescent intensity (MFI)", "setting": "HAdV5 [5]", "result": 41, "unit": "%"},
      {"measurement": "infected cells (immunofluorescence)", "setting": "H9N2", "result": "slight decrease"}
    ]},
    {"smiles": "NC(=O)c1ncn([C@@H]2O[C@H](CO)[C@@H](O)[C@H]2O)n1", "note": "[Ribavirin]", "values": [
      {"measurement": "antiviral activity against HAdV species C", "setting": "[2]; in vitro", "result": "antiviral activity"},
      {"measurement": "antiviral activity against species A, B, D", "setting": "[2]; in vitro", "result": "limited activation"}
    ]},
    {"smiles": "[Zn]", "note": "[zinc]", "values": [
      {"measurement": "antiviral effect", "setting": "adenovirus type 5", "result": "detectable"},
      {"measurement": "infection efficiencies in cells treated with zinc", "setting": "Adenovirus type 10", "result": "increased infection efficiencies"},
      {"measurement": "cytotoxic effect", "setting": "[6]", "result": "very strong cytotoxic effect"}
    ]}
  ]
}
